The values that follow come from patent US20250270209A1 (INTERLINE THERAPEUTICS, INC., priority 2022, published 2025).

pIC50: −log10 of the molar value.

One test addresses LRRK2 wild type enzyme (Homo sapiens, UniProt Q5S007). Kind of test: Biochemical Assay: LRRK2 TR-FRET (LanthaScreen) kinase assay with LRRKtide substrate. The following applies: LRRK2 Inhibition, Table 8. Put shortly:
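TR-FRET detection (Tb-labelled phospho-LRRKtide antibody, EDTA stop, 30 min) followed a 120 min, 23 °C reaction of 3 nM wild-type human LRRK2 with LRRKtide (400 nM) and ATP (25 μM) in Tris pH 8.0. Compounds: 11-point 3-fold series from 10 μM, 15 min enzyme preincubation.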
(In general: TR-FRET usually uses a lanthanide donor and a delayed reading to cut background.)

The target of test [1] is T1, wild type LRRK2 overexpressed in recombinant HEK-293T cells (Homo sapiens, UniProt Q5S007).
T1 construct: host or cells: HEK293T (transient transfection with pCMV-LRRK2 WT plasmid)
T1 sequence (Q5S007 whole entry): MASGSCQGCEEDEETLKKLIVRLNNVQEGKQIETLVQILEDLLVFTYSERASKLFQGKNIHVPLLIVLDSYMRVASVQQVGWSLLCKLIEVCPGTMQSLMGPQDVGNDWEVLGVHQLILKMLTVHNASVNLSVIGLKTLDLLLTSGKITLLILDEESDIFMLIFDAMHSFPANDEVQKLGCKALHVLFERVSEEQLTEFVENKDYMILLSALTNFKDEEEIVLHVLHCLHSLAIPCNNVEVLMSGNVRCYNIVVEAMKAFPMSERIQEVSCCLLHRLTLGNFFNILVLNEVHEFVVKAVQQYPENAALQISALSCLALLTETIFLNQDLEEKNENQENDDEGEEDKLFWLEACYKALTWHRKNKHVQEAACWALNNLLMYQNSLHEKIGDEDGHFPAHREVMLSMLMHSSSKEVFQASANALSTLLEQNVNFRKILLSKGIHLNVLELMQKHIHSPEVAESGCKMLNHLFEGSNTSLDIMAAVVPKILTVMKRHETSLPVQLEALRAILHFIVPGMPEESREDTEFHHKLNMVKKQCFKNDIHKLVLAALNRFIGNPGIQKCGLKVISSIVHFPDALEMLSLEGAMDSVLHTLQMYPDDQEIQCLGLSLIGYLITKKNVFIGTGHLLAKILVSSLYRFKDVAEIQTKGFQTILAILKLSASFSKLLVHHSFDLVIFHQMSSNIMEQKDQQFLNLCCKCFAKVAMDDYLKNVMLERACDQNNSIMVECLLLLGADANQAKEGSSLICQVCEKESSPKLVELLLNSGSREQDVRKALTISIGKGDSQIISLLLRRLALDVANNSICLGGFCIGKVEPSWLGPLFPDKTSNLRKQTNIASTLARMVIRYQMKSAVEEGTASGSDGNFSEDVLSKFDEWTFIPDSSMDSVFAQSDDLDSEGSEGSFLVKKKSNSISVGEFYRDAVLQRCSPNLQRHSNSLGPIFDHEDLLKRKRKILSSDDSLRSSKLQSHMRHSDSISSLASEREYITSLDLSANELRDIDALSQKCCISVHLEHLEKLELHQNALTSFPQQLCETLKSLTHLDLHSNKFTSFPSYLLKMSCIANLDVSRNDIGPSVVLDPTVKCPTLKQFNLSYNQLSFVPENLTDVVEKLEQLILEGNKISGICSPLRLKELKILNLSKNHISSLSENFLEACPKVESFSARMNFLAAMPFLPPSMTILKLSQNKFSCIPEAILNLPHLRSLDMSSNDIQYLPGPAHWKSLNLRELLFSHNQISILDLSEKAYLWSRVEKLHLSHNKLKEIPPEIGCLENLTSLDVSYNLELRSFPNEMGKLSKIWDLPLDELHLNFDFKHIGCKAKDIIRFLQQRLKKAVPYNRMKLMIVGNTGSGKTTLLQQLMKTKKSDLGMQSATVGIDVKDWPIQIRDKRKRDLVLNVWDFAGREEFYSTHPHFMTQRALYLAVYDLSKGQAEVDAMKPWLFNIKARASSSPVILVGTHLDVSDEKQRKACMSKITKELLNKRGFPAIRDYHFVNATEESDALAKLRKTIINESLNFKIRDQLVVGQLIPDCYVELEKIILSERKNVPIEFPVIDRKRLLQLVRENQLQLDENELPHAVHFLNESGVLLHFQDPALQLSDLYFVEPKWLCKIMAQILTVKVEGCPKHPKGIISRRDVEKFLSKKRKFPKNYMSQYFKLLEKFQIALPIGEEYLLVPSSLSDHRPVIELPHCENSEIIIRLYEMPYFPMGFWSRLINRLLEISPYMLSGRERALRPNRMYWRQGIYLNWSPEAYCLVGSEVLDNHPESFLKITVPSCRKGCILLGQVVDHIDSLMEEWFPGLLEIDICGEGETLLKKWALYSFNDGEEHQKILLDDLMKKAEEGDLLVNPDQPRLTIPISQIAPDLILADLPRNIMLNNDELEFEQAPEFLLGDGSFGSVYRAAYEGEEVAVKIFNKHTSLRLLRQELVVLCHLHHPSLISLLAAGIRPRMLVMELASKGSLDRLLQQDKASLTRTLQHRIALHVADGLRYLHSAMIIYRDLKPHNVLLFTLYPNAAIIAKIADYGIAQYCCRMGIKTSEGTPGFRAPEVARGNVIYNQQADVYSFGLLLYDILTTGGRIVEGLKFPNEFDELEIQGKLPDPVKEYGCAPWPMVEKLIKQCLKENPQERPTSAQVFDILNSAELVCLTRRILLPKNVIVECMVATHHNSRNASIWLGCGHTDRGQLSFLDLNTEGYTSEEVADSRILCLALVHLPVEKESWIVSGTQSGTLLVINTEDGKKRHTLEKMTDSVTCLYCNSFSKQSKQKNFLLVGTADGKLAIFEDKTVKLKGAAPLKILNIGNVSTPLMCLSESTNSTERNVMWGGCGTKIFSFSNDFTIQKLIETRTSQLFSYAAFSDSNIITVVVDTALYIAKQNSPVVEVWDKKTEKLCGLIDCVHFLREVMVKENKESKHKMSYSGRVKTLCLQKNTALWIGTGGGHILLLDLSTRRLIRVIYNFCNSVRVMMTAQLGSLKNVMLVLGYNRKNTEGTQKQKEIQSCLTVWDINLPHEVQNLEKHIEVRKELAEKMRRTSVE
Kind of test: pS935 LRRK2 Cell Assay (HTRF, phospho-LRRK2 Ser935). It is filed as cell-based. The following applies: LRRK2 Inhibition, Table 8, 2 hours compound incubation. Put shortly: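 Phospho-Ser935 LRRK2 measured by two-antibody HTRF (Eu-cryptate donor, d2 acceptor; 665/615 nm ratio) after overnight detection at 23° C. Before lysis, transiently LRRK2-transfected HEK-293T cells were exposed 2 h at 37° C to a 9-point, 3-fold series from 10 μM, with DMSO at 0.2%.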

LRRK2 wild type enzyme, sequence (Q5S007 whole entry): as above

For the compound `COCCCNC(=O)Cc1nc2cnc3ccc(C#N)cc3c2n1[C@@H]1CCO[C@H](C)C1` [Compound 166, 2-{8-cyano-1-[(2R,4R)-2-methyloxan-4-yl]-1H-imidazo[4,5-c]quinolin-2-yl}-N-(3-methoxypropyl)acetamide], the pIC50 is 9.44 at LRRK2 wild type enzyme and 7.92 in test [1].
With `C[C@@H]1C[C@H](n2c(CC(=O)Nc3ccccn3)nc3cnc4ccc(C#N)cc4c32)CCO1` [Compound 155, 2-{8-cyano-1-[(2R,4R)-2-methyloxan-4-yl]-1H-imidazo[4,5-c]quinolin-2-yl}-N-(pyridin-2-yl)acetamide], the pIC50 on LRRK2 wild type enzyme was 9.36; in test [1], 8.54.
For `C[C@@H]1C[C@H](n2c(CC(=O)Nc3cnc(C4CC4)nc3)nc3cnc4ccc(C#N)cc4c32)CCO1` [Compound 300, N-(2-cyclopropyl-5-pyrimidinyl){3-[(2R,4R)-2-methyltetrahydro-2H-pyran-4-yl]-12-cyano-3,5,8-triazatricyclo[7.4.0.0^2,6]trideca-1,4,6,8,10,12-hexaen-4-yl}acetamide], in that order: 9.42 and 7.97.
The matching figures for `Cc1ncc(NC(=O)Cc2nc3cnc4ccc(C#N)cc4c3n2[C@@H]2CCO[C@H](C)C2)c(C)n1` [Compound 261, N-(2,4-dimethyl-5-pyrimidinyl){3-[(2R,4R)-2-methyltetrahydro-2H-pyran-4-yl]-12-cyano-3,5,8-triazatricyclo[7.4.0.0^2,6]trideca-1,4,6,8,10,12-hexaen-4-yl}acetamide]: 9.29 and 7.98.
The matching figures for `C[C@@H]1C[C@H](n2c(CC(=O)N[C@@H](C)c3ccccn3)nc3cnc4ccc(C#N)cc4c32)CCO1` [Compound 189, 2-{8-cyano-1-[(2R,4R)-2-methyloxan-4-yl]-1H-imidazo[4,5-c]quinolin-2-yl}-N-[(1S)-1-(pyridin-2-yl)ethyl]acetamide]: 9.48 and 8.79.
On to `C[C@@H]1C[C@H](n2c(C3CC(=O)N(c4cnn(C)c4)C3)nc3cnc4ccc(C#N)cc4c32)CCO1` (mixture of isomers) [Compound 59, 2-[(3RS)-1-(1-methyl-1H-pyrazol-4-yl)-5-oxopyrrolidin-3-yl]-1-[(2R,4R)-2-methyloxan-4-yl]-1H-imidazo[4,5-c]quinoline-8-carbonitrile], for which the pIC50 is 8.97 on LRRK2 wild type enzyme and 6.93 in test [1].
Regarding `C[C@@H]1C[C@H](n2c([C@H]3CCN(C(=O)OC(C)(C)C)C3)nc3cnc4ccc(C#N)cc4c32)CCO1` [Compound 26, tert-butyl (3S)-3-{8-cyano-1-[(2R,4R)-2-methyloxan-4-yl]-1H-imidazo[4,5-c]quinolin-2-yl}pyrrolidine-1-carboxylate], the pIC50 at LRRK2 wild type enzyme was 8.28; in test [1], 6.34.
In the case of `C[C@@H]1C[C@H](n2c(CC(=O)NCc3cnccn3)nc3cnc4ccc(Cl)cc4c32)CCO1` [Compound 150, 2-{8-chloro-1-[(2R,4R)-2-methyloxan-4-yl]-1H-imidazo[4,5-c]quinolin-2-yl}-N-[(pyrazin-2-yl)methyl]acetamide], the pIC50 against LRRK2 wild type enzyme is 9.33; in test [1], 8.14.
Regarding `C[C@@H]1C[C@H](n2c(C(F)(F)C(=O)NCC3CC3)nc3cnc4ccc(C#N)cc4c32)CCO1` [Compound 334], the pIC50 was 8.87 at LRRK2 wild type enzyme and 7.58 in test [1].
For `C[C@@H]1C[C@H](n2c(CC(=O)N[C@H]3C[C@@H](OCc4ccccn4)C3)nc3cnc4ccc(C#N)cc4c32)CCO1` [Compound 162, 2-{8-cyano-1-[(2R,4R)-2-methyloxan-4-yl]-1H-imidazo[4,5-c]quinolin-2-yl}-N-[(1rs,3rs)-3-[(pyridin-2-yl)methoxy]cyclobutyl]acetamide], in that order: 9.31 and 7.26.
The matching figures for `C[C@@H]1C[C@H](n2c(CC(=O)Nc3cn(C)ccc3=O)nc3cnc4ccc(C#N)cc4c32)CCO1` [Compound 234, N-(1-methyl-4-oxo-1,4-dihydro-3-pyridyl){3-[(2R,4R)-2-methyltetrahydro-2H-pyran-4-yl]-12-cyano-3,5,8-triazatricyclo[7.4.0.0^2,6]trideca-1,4,6,8,10,12-hexaen-4-yl}acetamide]: 9.18 and 6.39.
Turning to `Cc1nn(C)c(C)c1NC(=O)Cc1nc2cnc3ccc(C#N)cc3c2n1[C@@H]1CCO[C@H](C)C1` [Compound 187, 2-{8-cyano-1-[(2R,4R)-2-methyloxan-4-yl]-1H-imidazo[4,5-c]quinolin-2-yl}-N-(1,3,5-trimethyl-1H-pyrazol-4-yl)acetamide], the pIC50 was 9.62 against LRRK2 wild type enzyme and 8.02 in test [1].
For `C[C@@H]1C[C@H](n2c(CC(=O)Nc3cnn(C4CC4)c3)nc3cnc4ccc(C#N)cc4c32)CCO1` [Compound 307, N-(1-cyclopropyl-4-pyrazolyl){3-[(2R,4R)-2-methyltetrahydro-2H-pyran-4-yl]-12-cyano-3,5,8-triazatricyclo[7.4.0.0^2,6]trideca-1(13),2(6),4,7,9,11-hexaen-4-yl}acetamide], in that order: 9.17 and 7.76.
For `C[C@@H]1C[C@H](n2c(CC(=O)Nc3cccnc3F)nc3cnc4ccc(C#N)cc4c32)CCO1` [Compound 317, N-(2-fluoro-3-pyridyl){3-[(2R,4R)-2-methyltetrahydro-2H-pyran-4-yl]-12-cyano-3,5,8-triazatricyclo[7.4.0.0^2,6]trideca-1(9),2(6),4,7,10,12-hexaen-4-yl}acetamide], the pIC50 against LRRK2 wild type enzyme was 9.30; in test [1] it was 8.39.
The matching figures for `C[C@@H]1C[C@H](n2c(CC(=O)Nc3cnccc3C#N)nc3cnc4ccc(C#N)cc4c32)CCO1` [Compound 271, N-(4-cyano-3-pyridyl){3-[(2R,4R)-2-methyltetrahydro-2H-pyran-4-yl]-12-cyano-3,5,8-triazatricyclo[7.4.0.0^2,6]trideca-1,4,6,8,10,12-hexaen-4-yl}acetamide]: 9.19 and 8.07.
The matching figures for `C[C@@H]1C[C@H](n2c(CC(=O)Nc3cnn(C4COC4)c3)nc3cnc4ccc(C#N)cc4c32)CCO1` [Compound 304, N-[1-(3-oxetanyl)-4-pyrazolyl]{3-[(2R,4R)-2-methyltetrahydro-2H-pyran-4-yl]-12-cyano-3,5,8-triazatricyclo[7.4.0.0^2,6]trideca-1(13),2(6),4,7,9,11-hexaen-4-yl}acetamide]: 9.13 and 6.97.
Consider `CC(=O)N1CC[C@H](c2nc3cnc4ccc(C#N)cc4c3n2[C@@H]2CCO[C@H](C)C2)C1` [Compound 43, 2-[(3S)-1-acetylpyrrolidin-3-yl]-1-[(2R,4R)-2-methyloxan-4-yl]-1H-imidazo[4,5-c]quinoline-8-carbonitrile], for which the pIC50 is 7.91 against LRRK2 wild type enzyme and 5.77 in test [1].
For `CCc1ncc(NC(=O)Cc2nc3cnc4ccc(C#N)cc4c3n2[C@@H]2CCO[C@H](C)C2)cn1` [Compound 262, N-(2-ethyl-5-pyrimidinyl){3-[(2R,4R)-2-methyltetrahydro-2H-pyran-4-yl]-12-cyano-3,5,8-triazatricyclo[7.4.0.0^2,6]trideca-1,4,6,8,10,12-hexaen-4-yl}acetamide], in that order: 9.33 and 7.74.
For `C[C@@H]1C[C@H](n2c(C3CCN(S(=O)(=O)C4CC4)CC3)nc3cnc4ccc(C#N)cc4c32)CCO1` [Compound 120, 2-[1-(cyclopropanesulfonyl)piperidin-4-yl]-1-[(2R,4R)-2-methyloxan-4-yl]-1H-imidazo[4,5-c]quinoline-8-carbonitrile], in that order: 8.77 and 6.57.
For the compound `C[C@@H]1C[C@H](n2c(C3CC(=O)N(c4ccn(C)n4)C3)nc3cnc4ccc(C#N)cc4c32)CCO1` (stereo partly drawn) [Compound 100, 2-[1-(1-methyl-1H-pyrazol-3-yl)-5-oxopyrrolidin-3-yl]-1-[(2R,4R)-2-methyloxan-4-yl]-1H-imidazo[4,5-c]quinoline-8-carbonitrile], the negative logarithm of the IC50 (pIC50) against LRRK2 wild type enzyme was 8.67; in test [1] it was 6.84.
Turning to `COCCNC(=O)Cc1nc2cnc3ccc(Cl)cc3c2n1[C@@H]1CCO[C@H](C)C1` [Compound 164, 2-{8-chloro-1-[(2R,4R)-2-methyloxan-4-yl]-1H-imidazo[4,5-c]quinolin-2-yl}-N-(2-methoxyethyl)acetamide], the pIC50 on LRRK2 wild type enzyme was 9.43; in test [1], 7.82.
On to `CC1CC(n2c(CC3CNC3)nc3cnc4ccc(C#N)cc4c32)CCO1` (stereo not drawn) [Compound 70, 2-[(azetidin-3-yl)methyl]-1-(2-methyloxan-4-yl)-1H-imidazo[4,5-c]quinoline-8-carbonitrile], for which the pIC50 was 8.04 at LRRK2 wild type enzyme and 5.43 in test [1].
As to `C[C@@H]1C[C@H](n2c(CC(=O)NCc3cc(C4CC4)on3)nc3cnc4ccc(C#N)cc4c32)CCO1` [Compound 161, 2-{8-cyano-1-[(2R,4R)-2-methyloxan-4-yl]-1H-imidazo[4,5-c]quinolin-2-yl}-N-[(5-cyclopropyl-1,2-oxazol-3-yl)methyl]acetamide], the figures for the pIC50 (against LRRK2 wild type enzyme; in test [1]) were 9.45 and 8.36, respectively.
With `C[C@@H]1C[C@H](n2c(CC(=O)Nc3cc(C4CC4)on3)nc3cnc4ccc(C#N)cc4c32)CCO1` [Compound 359, N-(5-cyclopropyl-3-isoxazolyl){3-[(2R,4R)-2-methyltetrahydro-2H-pyran-4-yl]-12-cyano-3,5,8-triazatricyclo[7.4.0.0^2,6]trideca-1(9),2(6),4,7,10,12-hexaen-4-yl}acetamide], the results for the pIC50 (against LRRK2 wild type enzyme; in test [1]) were 9.28 and 8.32, respectively.

Broadly, the pIC50 is −log10 of the IC50, conventionally taken in molar units.
